Assay results from patent publication US20140005163A1 (NOVARTIS AG, priority 2010, published 2014).
Values after ≈ are worked out from the molar mass of the structure shown. Where two headings read alike, the source gives them in different places.

Legend:
[1] = Solubility at pH 6.8; type: physicochemical
Description: The physicochemical properties of relevance for the absorption of the compound, such as the solubility and the membrane permeability, especially at a pH close to neutral pH can be measured using the procedure as described by L. ZHOU et al. in JOURNAL OF PHARMACEUTICAL SCIENCES, VOL. 96, NO. 11, p. 3052-3071 (2007) for the solubility at pH 6.8 and the procedure as described by F. Wohnsland and B. Faller in Journal of Medicinal Chemistry Vol 44, p. 923-930 (2001) for the Parallel Artificial Membrane Permeability Assay (PAMPA) at pH 6.8.

[2] = target: T1, PI3K delta (Homo sapiens, UniProt O00329); experiment: PI3K delta kinase assay (Kinase-Glo luminescence); type: biochemical
T1 construct: for the full-length p110-d subunit are generated and fused by overlapping PCR; p85(iSH2) fusion partner (see partner chain) (N); His tag (C); made in house; host or cells: baculovirus; Tn5 (Trichoplusia ni) or TiniPro insect cells
T1 sequence (O00329 with tags, fused parts or gaps limits assumed): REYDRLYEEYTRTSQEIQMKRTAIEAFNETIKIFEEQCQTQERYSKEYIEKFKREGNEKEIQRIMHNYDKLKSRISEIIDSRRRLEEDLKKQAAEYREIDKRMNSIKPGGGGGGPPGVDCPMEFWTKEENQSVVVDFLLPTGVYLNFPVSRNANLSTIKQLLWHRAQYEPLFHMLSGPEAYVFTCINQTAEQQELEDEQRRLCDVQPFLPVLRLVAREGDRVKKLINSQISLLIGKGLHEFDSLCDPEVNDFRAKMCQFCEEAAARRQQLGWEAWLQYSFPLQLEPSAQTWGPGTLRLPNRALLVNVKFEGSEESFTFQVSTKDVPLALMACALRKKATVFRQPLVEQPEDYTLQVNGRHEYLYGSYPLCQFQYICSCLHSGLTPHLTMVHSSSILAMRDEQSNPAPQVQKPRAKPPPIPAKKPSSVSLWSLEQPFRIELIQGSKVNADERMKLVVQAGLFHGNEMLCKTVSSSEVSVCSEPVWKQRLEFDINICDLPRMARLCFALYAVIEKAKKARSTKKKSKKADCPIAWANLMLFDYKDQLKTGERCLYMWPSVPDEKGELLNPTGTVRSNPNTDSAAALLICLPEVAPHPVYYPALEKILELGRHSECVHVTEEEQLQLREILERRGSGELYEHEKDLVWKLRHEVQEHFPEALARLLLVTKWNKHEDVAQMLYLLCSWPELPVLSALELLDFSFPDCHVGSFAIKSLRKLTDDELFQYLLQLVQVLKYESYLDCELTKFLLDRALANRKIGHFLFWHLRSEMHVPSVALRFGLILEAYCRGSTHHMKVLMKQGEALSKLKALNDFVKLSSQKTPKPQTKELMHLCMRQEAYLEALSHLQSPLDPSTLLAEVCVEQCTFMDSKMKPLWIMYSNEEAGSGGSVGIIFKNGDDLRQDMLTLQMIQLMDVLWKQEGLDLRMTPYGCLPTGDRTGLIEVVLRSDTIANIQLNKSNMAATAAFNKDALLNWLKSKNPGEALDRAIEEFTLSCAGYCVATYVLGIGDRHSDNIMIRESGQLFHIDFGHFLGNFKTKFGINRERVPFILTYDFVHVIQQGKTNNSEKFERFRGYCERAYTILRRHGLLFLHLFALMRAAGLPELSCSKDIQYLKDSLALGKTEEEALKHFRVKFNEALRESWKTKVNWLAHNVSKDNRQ
Description: (§1) In a more preferred assay, the kinase reaction is performed in a final volume of 10 μL per well of a low volume non binding CORNING, 384 well black plate (Cat. No. #3676). The final concentrations of ATP and phosphatidyl inositol (PI) in the assay are 1 μM and 10 μg/mL respectively. The reaction is started by the addition of ATP.
(§2) The components of the assay are added per well as follows:
(§3) […] in 90% DMSO per well, in columns 1-20, 8 concentrations (1/3 and 1/3.33 serial dilution step) in single. • Low control: […] of 90% DMSO in half the wells of columns 23-24 (0.45% in final). • High control: […] of reference compound (e.g. compound of Example 7 in WO 2006/122806) in the other half of columns 23-24 (2.5 μM in final). • Standard: […] of reference compound as just mentioned diluted as the test compounds in columns 21-22 • 20 mL ‘buffer’ are prepared per assay: • 200 μL of 1M TRIS HCl pH7.5 (10 mM in final) • 60 μL of 1M MgCl2 (3 mM in final) • 500 μL of 2M NaCl (50 mM in final) • 100 μL of 10% CHAPS (0.05% in final) • 200 μL of 100 mM DTT (1 mM in final) • 18.94 mL of nanopure water • 10 mL ‘PI’ are prepared per assay: • 200 μL of 1 mg/ml L-alpha-Phosphatidylinositol (Liver Bovine, Avanti Polar Lipids Cat. No. 840042C MW=909.12) prepared in 3% OctylGlucoside (10 μg/ml in final) • 9.8 mL of ‘buffer’ • 10 mL ‘ATP’ are prepared per assay: • 6.7 μL of 3 mM stock of ATP giving a final concentration of 1 μM per well • 10 mL of ‘buffer’ • 2.5 mL of each PI3K construct are prepared per assay in ‘PI’ with the following final concentration: • 10 nM PI3K alfa EMV B1075 • 25 nM beta EMV BV949 • 10 nM delta EMV BV1060 • 150 nM gamma EMV BV950 • 5 μL of ‘PI/PI3K’ are added per well. • 5 μl ‘ATP’ are added per well to start the reaction. • The plates are then incubated at room temperature for 60 minutes (alfa, beta, delta) or 120 minutes (gamma). • The reaction is terminated by the addition of 10 μL Kinase-Glo (Promega Cat. No. #6714). • The assay plates are read after 10 minutes in Synergy 2 reader (BioTek, Vermont USA) with an integration time of 100 milliseconds and sensitivity set to 191. • Output: The High control is around 60'000 counts and the Low control is 30'000 or lower • This luminescence assay gives a useful Z′ ratio between 0.4 and 0.7
PI3Kγ BV-1060 p85(iSH2)-Gly Linker-p110d(Full-Length)-C-Term his Tag
(§4) IC50 is determined by a four parameter curve fitting routine that comes along with “excel fit”. […] Alternatively, IC50 values are calculated using idbsXLfit model 204, which is a 4 parameter logistic model.

[3] = target: T2, PI3K alpha (Homo sapiens, UniProt P42336); experiment: PI3K alpha kinase assay (Kinase-Glo luminescence); type: biochemical
T2 construct: p85(iSH2) fusion partner (see partner chain) (N); His tag (C); made in house; host or cells: baculovirus; Tn5 (Trichoplusia ni) or TiniPro insect cells
T2 sequence (P42336 with tags, fused parts or gaps limits assumed): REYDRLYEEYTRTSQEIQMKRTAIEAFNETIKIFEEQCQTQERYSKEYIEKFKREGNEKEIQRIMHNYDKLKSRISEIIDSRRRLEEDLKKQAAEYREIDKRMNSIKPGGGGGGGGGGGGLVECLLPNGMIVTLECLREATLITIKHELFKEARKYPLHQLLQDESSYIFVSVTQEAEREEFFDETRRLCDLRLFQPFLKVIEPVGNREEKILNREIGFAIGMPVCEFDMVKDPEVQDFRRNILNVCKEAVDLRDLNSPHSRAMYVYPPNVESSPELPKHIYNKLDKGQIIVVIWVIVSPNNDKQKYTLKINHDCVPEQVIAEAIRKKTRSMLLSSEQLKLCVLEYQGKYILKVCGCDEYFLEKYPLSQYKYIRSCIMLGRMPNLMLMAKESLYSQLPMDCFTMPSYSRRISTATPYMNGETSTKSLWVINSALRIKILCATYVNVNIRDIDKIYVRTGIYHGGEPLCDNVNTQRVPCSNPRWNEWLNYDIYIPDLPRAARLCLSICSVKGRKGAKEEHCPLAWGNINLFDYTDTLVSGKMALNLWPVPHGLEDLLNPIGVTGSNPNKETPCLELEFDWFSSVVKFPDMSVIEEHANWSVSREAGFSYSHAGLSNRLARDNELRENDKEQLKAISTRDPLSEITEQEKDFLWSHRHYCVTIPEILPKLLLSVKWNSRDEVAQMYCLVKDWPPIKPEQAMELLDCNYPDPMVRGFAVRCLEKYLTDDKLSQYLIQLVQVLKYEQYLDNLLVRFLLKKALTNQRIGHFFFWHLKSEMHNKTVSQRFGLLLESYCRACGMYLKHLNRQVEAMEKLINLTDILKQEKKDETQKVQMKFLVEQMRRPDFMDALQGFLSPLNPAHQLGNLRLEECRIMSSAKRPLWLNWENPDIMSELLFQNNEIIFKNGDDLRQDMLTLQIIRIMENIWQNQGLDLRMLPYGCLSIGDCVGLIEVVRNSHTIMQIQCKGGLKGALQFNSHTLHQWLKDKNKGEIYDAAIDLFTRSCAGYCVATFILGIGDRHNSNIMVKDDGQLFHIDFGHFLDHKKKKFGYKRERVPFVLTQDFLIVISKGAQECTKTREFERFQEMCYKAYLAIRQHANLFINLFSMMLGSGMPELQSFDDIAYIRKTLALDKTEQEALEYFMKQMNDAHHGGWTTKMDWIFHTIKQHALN
Method in brief: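 IC50 is taken from a four-parameter logistic fit of 8-point dilutions, with Kinase-Glo luminescence reporting residual ATP. Reactions ran 60 min at room temperature in TRIS pH 7.5 buffer with MgCl2, NaCl, CHAPS and DTT. Final levels were 10 nM enzyme, 1 μM ATP and 10 μg/mL PI.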

[4] = target: T3, PI3K beta (Homo sapiens, UniProt P42338); experiment: PI3K beta kinase assay (Kinase-Glo luminescence); type: biochemical
T3 construct: for the full-length p110-b subunit are generated and fused by overlapping PCR; p85(iSH2) fusion partner (see partner chain) (N); His tag (C); made in house; host or cells: baculovirus; Tn5 (Trichoplusia ni) or TiniPro insect cells
T3 sequence (P42338 with tags, fused parts or gaps limits assumed): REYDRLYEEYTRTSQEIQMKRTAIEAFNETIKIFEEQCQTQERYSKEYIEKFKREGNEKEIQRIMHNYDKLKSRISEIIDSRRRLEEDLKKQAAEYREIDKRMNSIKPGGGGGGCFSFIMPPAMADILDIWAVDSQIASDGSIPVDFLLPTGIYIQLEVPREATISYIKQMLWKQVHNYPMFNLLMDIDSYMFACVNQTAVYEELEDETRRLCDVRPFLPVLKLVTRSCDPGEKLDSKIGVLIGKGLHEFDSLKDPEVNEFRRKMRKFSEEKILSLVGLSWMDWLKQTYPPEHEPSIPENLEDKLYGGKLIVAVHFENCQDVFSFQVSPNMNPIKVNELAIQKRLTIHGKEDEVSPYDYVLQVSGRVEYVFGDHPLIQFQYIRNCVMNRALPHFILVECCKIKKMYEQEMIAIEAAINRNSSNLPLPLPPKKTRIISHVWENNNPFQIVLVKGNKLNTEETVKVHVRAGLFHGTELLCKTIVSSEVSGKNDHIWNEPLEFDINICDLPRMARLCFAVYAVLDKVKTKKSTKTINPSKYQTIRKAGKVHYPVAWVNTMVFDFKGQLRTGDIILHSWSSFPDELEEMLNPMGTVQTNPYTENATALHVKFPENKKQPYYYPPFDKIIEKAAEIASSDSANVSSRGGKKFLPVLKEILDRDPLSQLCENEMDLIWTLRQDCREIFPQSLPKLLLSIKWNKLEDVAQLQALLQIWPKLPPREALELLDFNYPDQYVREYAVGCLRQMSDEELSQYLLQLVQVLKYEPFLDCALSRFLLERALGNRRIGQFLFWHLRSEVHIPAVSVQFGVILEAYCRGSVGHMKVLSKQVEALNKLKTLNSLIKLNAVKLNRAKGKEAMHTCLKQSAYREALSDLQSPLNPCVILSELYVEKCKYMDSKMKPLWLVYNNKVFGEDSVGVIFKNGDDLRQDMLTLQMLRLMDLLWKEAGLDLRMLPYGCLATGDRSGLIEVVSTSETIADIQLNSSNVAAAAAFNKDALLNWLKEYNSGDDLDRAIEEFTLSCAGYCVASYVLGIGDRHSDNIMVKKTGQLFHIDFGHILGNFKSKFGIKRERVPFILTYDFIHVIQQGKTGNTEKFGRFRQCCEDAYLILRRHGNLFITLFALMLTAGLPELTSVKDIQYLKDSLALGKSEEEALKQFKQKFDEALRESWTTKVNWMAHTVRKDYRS
Description: as §1, §2, §3
PI3Kβ BV-949 p85(iSH2)-Gly Linker-p110b(Full-Length)-C-Term his Tag
as §4

[5] = tested on: PKB Ser473 phosphorylation in Rat1-myr-HA-p110 alpha cells; experiment: Reverse protein array assay, PKB Ser473 phosphorylation in Rat1-myr-p110 alpha cells; type: cell-based; conditions: 0.5 h, pAkt Ser473, 30 minutes compound incubation, read-out: p-PKB IC50
Method in brief: (§5)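 Compound exposure lasted 30 min in Rat1 cells bearing membrane-targeted HA-p110 isoforms, using 8 serial concentrations. Arrayed lysates, each spotted at four dilutions, gave relative fluorescence signals for phospho-Ser473 PKB.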

[6] = tested on: PKB Ser473 phosphorylation in Rat1-myr-HA-p110 delta cells; experiment: Reverse protein array assay, PKB Ser473 phosphorylation in Rat1-myr-p110 delta cells; type: cell-based; conditions: read-out: p-PKB IC50
Method in brief: as §5

[7] = tested on: S6 Ribosomal Protein phosphorylation Ser235/236 in TSC1 null mouse embryo fibroblast (MEF) cells; experiment: Reverse protein array assay, S6 Ribosomal Protein phosphorylation Ser235/236 in TSC1 null MEF cells; type: cell-based; conditions: 1 h, pS6 ribosomal protein Ser235/236, 60 minutes incubation, read-out: p-S6 IC50
Method in brief: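 TSC1−/− MEFs, seeded and held ≥20 h at 37 °C/5% CO2, were exposed to 8-step serial compound dilutions (0.02% DMSO final; DMSO vehicle control) for 60 min at 37 °C. Cells were then lysed on ice for 10 min and lysates spotted onto reverse protein array chips.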

[8] = target: T4, mTOR (Homo sapiens, UniProt P42345); experiment: Biochemical assay for m-TOR by TR-FRET; conditions: 8 μM ATP, 400 nM GFP-4EBP1, 0.5 nM mTOR
T4 construct: purchased Invitrogen Corporation (Carlsbad/CA, USA) PV4753
T4 sequence (P42345 1360-2549 limits assumed): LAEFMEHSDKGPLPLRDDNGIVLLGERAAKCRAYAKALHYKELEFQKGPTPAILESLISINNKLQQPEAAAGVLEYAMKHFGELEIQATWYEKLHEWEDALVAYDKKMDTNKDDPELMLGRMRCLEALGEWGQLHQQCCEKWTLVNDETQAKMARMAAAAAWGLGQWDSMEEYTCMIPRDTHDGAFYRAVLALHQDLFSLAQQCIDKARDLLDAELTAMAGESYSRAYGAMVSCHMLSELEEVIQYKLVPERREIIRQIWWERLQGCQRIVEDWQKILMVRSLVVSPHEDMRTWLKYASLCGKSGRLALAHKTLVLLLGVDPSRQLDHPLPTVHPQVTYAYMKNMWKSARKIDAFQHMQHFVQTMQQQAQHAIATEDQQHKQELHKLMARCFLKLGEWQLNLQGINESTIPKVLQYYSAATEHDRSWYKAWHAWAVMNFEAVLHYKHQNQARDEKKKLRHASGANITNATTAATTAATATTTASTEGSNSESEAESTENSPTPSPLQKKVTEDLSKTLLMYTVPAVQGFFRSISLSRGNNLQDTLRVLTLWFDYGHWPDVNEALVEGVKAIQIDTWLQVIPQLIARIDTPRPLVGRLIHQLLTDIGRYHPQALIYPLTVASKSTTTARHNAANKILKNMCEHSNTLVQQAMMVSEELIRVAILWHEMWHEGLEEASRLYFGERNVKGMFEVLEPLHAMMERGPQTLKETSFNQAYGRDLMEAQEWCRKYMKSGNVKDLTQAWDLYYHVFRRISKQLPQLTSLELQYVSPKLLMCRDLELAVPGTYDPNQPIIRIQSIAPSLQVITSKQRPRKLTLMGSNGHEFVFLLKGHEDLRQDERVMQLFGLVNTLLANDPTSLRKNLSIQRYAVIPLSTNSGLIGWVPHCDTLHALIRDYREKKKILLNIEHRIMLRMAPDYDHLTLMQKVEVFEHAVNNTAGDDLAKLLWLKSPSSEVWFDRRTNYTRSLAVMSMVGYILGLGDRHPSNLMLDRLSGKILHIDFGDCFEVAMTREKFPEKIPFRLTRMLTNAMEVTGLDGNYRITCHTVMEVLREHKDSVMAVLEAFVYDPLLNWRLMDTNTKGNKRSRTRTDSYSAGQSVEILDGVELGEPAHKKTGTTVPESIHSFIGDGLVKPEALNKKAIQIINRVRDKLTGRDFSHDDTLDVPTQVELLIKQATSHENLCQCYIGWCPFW
Method in brief: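 Enzyme 0.5 nM, GFP-4EBP1 400 nM, ATP 8 μM (all final); 50 mM HEPES pH 7.5, 10 mM MnCl2, 1 mM DTT; rt. Detection: Tb-α-p4EBP1 [pT46] 0.5 nM in EDTA, TR-FRET, 15 min. Reference compound on every plate, 16-point duplicate dilutions.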

[9] = tested on: PKB Ser473 phosphorylation in Rat1-myr-HA-p110 beta cells; experiment: Reverse protein array assay, PKB Ser473 phosphorylation in Rat1-myr-p110 beta cells; type: cell-based; conditions: 0.5 h, pAkt Ser473, 30 minutes incubation, read-out: p-PKB IC50
Method in brief: as §5

[10] = pH 6.8, aqueous buffer, thermodynamic from solid, read-out: solubility

Row | SMILES | solubility ([1]; pH 6.8) | IC50 [2] | IC50 [3] | IC50 [4] | IC50 [5] | IC50 [6] | solubility [1, 10] | IC50 [8] | IC50 [9] | IC50 [7]
1 | Cn1nccc1-n1c(=O)n(C)c2cnc3ccc(-c4ccnc(F)c4)cc3c21 [Example 11, 8-(2-Fluoro-pyridin-4-yl)-3-methyl-1-(2-methyl-2H-pyrazol-3-yl)-1,3-dihydro-imidazo[4,5-c]quinolin-2-one] | 2 µg/mL (≈ 5.34 µM) | 810 nM | – | – | – | – | – | – | – | –
2 | CC(=O)NCc1cncc(-c2ccc3ncc4c(c3c2)n(-c2cn(C)nc2C)c(=O)n4C)c1 [Example 231, N-{5-[1-(1,3-Dimethyl-1H-pyrazol-4-yl)-3-methyl-2-oxo-2,3-dihydro-1H-imidazo[4,5-c]quinolin-8-yl]-pyridin-3-ylmethyl}-acetamide] | – | – | 405 nM | – | – | – | 413 µg/mL (≈ 935 µM) | 542 nM | – | –
3 | CNC(=O)Cc1cncc(-c2ccc3ncc4c(c3c2)n(-c2cn(C)nc2C)c(=O)n4C)c1 [Example 228, 2-{5-[1-(1,3-Dimethyl-1H-pyrazol-4-yl)-3-methyl-2-oxo-2,3-dihydro-1H-imidazo[4,5-c]quinolin-8-yl]-pyridin-3-yl}-N-methyl-acetamide] | – | 166 nM | 85 nM | – | – | – | > 441 µg/mL | – | – | –
4 | Cc1cc(-n2c(=O)n(C)c3cnc4ccc(-c5cccnc5F)cc4c32)n(C)n1 [Example 9, 1-(2,5-Dimethyl-2H-pyrazol-3-yl)-8-(2-fluoro-pyridin-3-yl)-3-methyl-1,3-dihydro-imidazo[4,5-c]quinolin-2-one] | – | 737 nM | 246 nM | – | – | – | 9 µg/mL (≈ 23.2 µM) | 383 nM | – | –
5 | Cc1nn(C(C)C)cc1-n1c(=O)n(C)c2cnc3ccc(-c4ccccn4)cc3c21 [Example 113, 1-(1-Isopropyl-3-methyl-1H-pyrazol-4-yl)-3-methyl-8-pyridin-2-yl-1,3-dihydro-imidazo[4,5-c]quinolin-2-one] | – | – | – | – | 818 nM | – | 30 µg/mL (≈ 75.3 µM) | – | – | –
6 | Cc1nn(C)cc1-n1c(=O)n(C)c2cnc3ccc(-c4cnn(CCO)c4)cc3c21 [Example 106, 1-(1,3-Dimethyl-1H-pyrazol-4-yl)-8-[1-(2-hydroxy-ethyl)-1H-pyrazol-4-yl]-3-methyl-1,3-dihydro-imidazo[4,5-c]quinolin-2-one] | – | 147 nM | 154 nM | – | – | – | > 403 µg/mL | 672 nM | – | –

Further lines, with some results ahead:

Row | solubility ([1]; pH 6.8) | IC50 [2] | IC50 [3] | IC50 [4] | IC50 [5] | IC50 [6] | solubility [1, 10] | IC50 [8] | IC50 [9] | SMILES | IC50 [7]
7 | – | 33 nM | 28 nM | 222 nM | 301 nM | 833 nM | – | – | – | CCOCc1cc(-c2ccc3ncc4c(c3c2)n(-c2c(C)nn(C)c2C)c(=O)n4C)cnc1N [Example 166.5, 8-(6-Amino-5-ethoxymethyl-pyridin-3-yl)-3-methyl-1-(1,3,5-trimethyl-1H-pyrazol-4-yl)-1,3-dihydro-imidazo[4,5-c]quinolin-2-one] | 91.7 nM
8 | – | 5 nM | 8 nM | 8 nM | 279 nM | 235 nM | – | – | 275 nM | Cc1nn(C)cc1-n1c(=O)n(C)c2cnc3ccc(-c4cncc(C(C)(C)CO)c4)cc3c21 [Example 229, 1-(1,3-Dimethyl-1H-pyrazol-4-yl)-8-[5-(2-hydroxy-1,1-dimethyl-ethyl)-pyridin-3-yl]-3-methyl-1,3-dihydro-imidazo[4,5-c]quinolin-2-one] | 11 nM
9 | – | 80 nM | 173 nM | 76 nM | 253 nM | 458 nM | – | – | 245 nM | CCNc1cc(-c2ccc3ncc4c(c3c2)n(-c2c(C)noc2C)c(=O)n4C)cnc1F [Example 154.2, 1-(3,5-Dimethyl-isoxazol-4-yl)-8-(5-ethylamino-6-fluoro-pyridin-3-yl)-3-methyl-1,3-dihydro-imidazo[4,5-c]quinolin-2-one] | 39 nM
10 | – | 4 nM | 20 nM | 71 nM | < 5 nM | 73 nM | – | 113 nM | 81 nM | CNc1ncc(-c2ccc3ncc4c(c3c2)n(-c2cn(C(C)C)nc2C)c(=O)n4C)cc1COC [Example 248.1, 1-(1-Isopropyl-3-methyl-1H-pyrazol-4-yl)-8-(5-methoxymethyl-6-methylamino-pyridin-3-yl)-3-methyl-1,3-dihydro-imidazo[4,5-c]quinolin-2-one] | –
11 | – | 3 nM | 15 nM | 9 nM | < 5 nM | 5 nM | – | < 3 nM | < 5 nM | CCNc1cc(-c2ccc3ncc4c(c3c2)n(-c2cn(C)nc2C)c(=O)n4C)cnc1Cl [Example 153.2, 8-(6-Chloro-5-ethylamino-pyridin-3-yl)-1-(1,3-dimethyl-1H-pyrazol-4-yl)-3-methyl-1,3-dihydro-imidazo[4,5-c]quinolin-2-one] | –
12 | – | 50 nM | 27 nM | 41 nM | 10 nM | 18 nM | – | – | 13 nM | COc1ccc(-c2ccc3ncc4[nH]c(=O)n(-c5cn(C)nc5C)c4c3c2)cc1OC [Example 111, 8-(3,4-Dimethoxy-phenyl)-1-(1,3-dimethyl-1H-pyrazol-4-yl)-1,3-dihydro-imidazo[4,5-c]quinolin-2-one] | 3 nM
